The values below come from patent US20260335323A1, “CHIMERIC MOLECULE” (UCL Business Ltd, priority 2023, published 2026).

Test [1] concerns LC3. Put plainly: Western blot, LC3I:LC3II ratio in PANC-1 cells. The class given is cell-based, human. From the text:
(§1) FIG. 2. BL-918 is a potent ULK1 agonist and autophagy inducer (A) Representative images of PANC-1 cells stably expressing the mCherry-EGFP-LC3 tandem reporter treated with ULK1 agonists. Nuclei stained with Hoechst 33342, autophagosomes are shown in the EGFP channel and autolysosomes in the mCherry channel. Fold change in the number of autophagosomes (B) and autolysosomes (C) puncta in ULK1 agonist treated cells. (D) Western blot of PANC-1 cells treated with DMSO, bafilomycin and ULK1 agonists±bafilomycin; probed for p-ULK1 (S317), ULK1, p62, b-actin, LC3-I and LC3-II. Quantifications of western blot for changes in the ratio of p-ULK1 (S317):ULK1 (E), p62 (F) and LC31:LC3II (G). All data shown are mean±SEM, n=3, *p<0.05, ** p<0.01, one-way ANOVA with Dunnett's multiple comparisons test.
(§2) FIG. 4. ULKTACs retain ULK1 agonist activity and subsequent induction of autophagy (A) Western blot of PANC-1 cells treated with ULKTACs±bafilomycin, probed for p-ULK1 (S317), ULK1, p62, b-Actin, LC31 and LC3II. Quantifications of (A) for the pULK1:ULK1 ratio (B) LC3I:LC3II ratio (C) and changes in p62 (D). (E) Representative images of PANC-1 cells stably expressing the mCherry-EGFP-LC3 tandem reporter treated with ULKTACs w/or w/o bafilomycin. Nuclei stained with Hoechst 33342, autophagosomes are shown in the EGFP channel and autolysosomes in the mCherry channel. […]
(§3) Cells were homogenised in protein lysis buffer consisting of 0.1 M Tris pH 8.0, 0.1 M NaCl, 5% glycerol, IGEPAL® CA-630 (#18896. Sigma-Aldrich) and 5 mM EDTA, 0.1 M N-ethyl maleimide (ThermoFisher, #23030) and protease inhibitor (Cell Signalling Technologies, #5871). Protein concentrations were determined using the BCA assay to ensure equal loading. […]
(§4) Membranes were then incubated with horseradish peroxidase (HRP)-conjugated secondary antibodies (Rabbit #7074 and Mouse #7076) purchased from Cell Signalling Technologies for 1 hour and the HRP signal was detected using EZ-ECL Enhanced Chemiluminescence Detection Kit for HRP (#20-500-500, Sartorius), and imaged with an Alliance Q9 Advanced (UVITec). […]
(In general: Immunoblotting shows a protein as a band on a membrane.)

The test system of test [2] is p62/SQSTM1. Put plainly: Western blot, p62/SQSTM1 levels in PANC-1 cells. The class given is cell-based, human.
Description: as §1, §2, §3, §4

For test [3], the target named is T1, ULK1 (Homo sapiens, UniProt O75385).
T1 sequence (O75385 1-1050): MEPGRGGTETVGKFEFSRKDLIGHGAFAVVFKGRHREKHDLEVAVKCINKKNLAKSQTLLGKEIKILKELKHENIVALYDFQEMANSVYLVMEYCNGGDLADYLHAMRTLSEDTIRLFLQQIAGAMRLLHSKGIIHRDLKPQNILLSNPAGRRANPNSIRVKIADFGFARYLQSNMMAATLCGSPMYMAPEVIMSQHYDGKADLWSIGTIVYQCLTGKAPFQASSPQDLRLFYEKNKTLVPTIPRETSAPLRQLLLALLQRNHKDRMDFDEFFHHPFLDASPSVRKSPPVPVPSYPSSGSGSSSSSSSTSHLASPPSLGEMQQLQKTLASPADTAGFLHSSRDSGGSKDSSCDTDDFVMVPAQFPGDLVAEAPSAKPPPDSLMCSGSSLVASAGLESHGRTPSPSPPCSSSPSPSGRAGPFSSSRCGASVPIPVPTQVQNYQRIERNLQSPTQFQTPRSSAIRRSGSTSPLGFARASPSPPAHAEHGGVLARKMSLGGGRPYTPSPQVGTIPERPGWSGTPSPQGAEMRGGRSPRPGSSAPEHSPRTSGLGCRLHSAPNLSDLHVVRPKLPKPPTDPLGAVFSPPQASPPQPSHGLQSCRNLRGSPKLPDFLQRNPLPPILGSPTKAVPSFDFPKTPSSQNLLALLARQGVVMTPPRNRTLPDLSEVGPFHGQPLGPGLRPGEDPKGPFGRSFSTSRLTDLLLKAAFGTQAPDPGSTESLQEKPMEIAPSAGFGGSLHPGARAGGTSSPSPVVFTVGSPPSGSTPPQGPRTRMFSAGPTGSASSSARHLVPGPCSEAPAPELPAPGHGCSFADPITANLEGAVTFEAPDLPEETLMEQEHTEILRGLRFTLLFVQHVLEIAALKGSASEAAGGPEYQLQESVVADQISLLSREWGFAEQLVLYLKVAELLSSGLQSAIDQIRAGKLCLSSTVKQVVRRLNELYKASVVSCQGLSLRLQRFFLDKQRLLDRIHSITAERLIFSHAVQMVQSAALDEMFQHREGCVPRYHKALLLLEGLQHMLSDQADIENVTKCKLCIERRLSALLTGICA
Kind of test: Western blot, phosphorylation of ULK1 at Ser317 in PANC-1 cells. The test is classed as cell-based. The arrangement: pSer317 blot or TOM20 co-localisation.
Description: as §1
FIG. 4. ULKTACs retain ULK1 agonist activity and subsequent induction of autophagy (A) Western blot of PANC-1 cells treated with ULKTACs±bafilomycin, probed for p-ULK1 (S317), ULK1, p62, b-Actin, LC31 and LC3II. Quantifications of (A) for the pULK1:ULK1 ratio (B) LC3I:LC3II ratio (C) and changes in p62 (D). (E) Representative images of PANC-1 cells stably expressing the mCherry-EGFP-LC3 tandem reporter treated with ULKTACs w/or w/o bafilomycin. Nuclei stained with Hoechst 33342, autophagosomes are shown in the EGFP channel and autolysosomes in the mCherry channel. Fold change in the number of autophagosome (F) and autolysosome (G) puncta. Data shown are mean±SEM, *p<0.05, ** p<0.01, *** p<0.001, one-way ANOVA, Dunnett's multiple comparisons test.
Cells were homogenised in protein lysis buffer consisting of 0.1 M Tris pH 8.0, 0.1 M NaCl, 5% glycerol, IGEPAL® CA-630 (#18896. Sigma-Aldrich) and 5 mM EDTA, 0.1 M N-ethyl maleimide (ThermoFisher, #23030) and protease inhibitor (Cell Signalling Technologies, #5871). Protein concentrations were determined using the BCA assay to ensure equal loading. […] The membranes were immunoblotted with primary antibodies, overnight at 4° C. ULK1 (D8H5) Rabbit mAb (#0854) [1:1000], Phospho-ULK1 (Ser 317) Rabbit antibody (#37762) [1:1000], LC3B Rabbit antibody (#2775) [1:1000], TOM20 (D8T4N) Rabbit mAb (#42406) [1:1000] and, Phospho-Ubiquitin (Ser 65) (E2J6T) Rabbit mAb (#62082) [1:500] were obtained from Cell Signalling Technologies. Recombinant Anti-Vinculin Rabbit antibody (EPR8185) (#ab129002) [1:5000] and Anti-Mitofusin2 mouse antibody (6A8) (#ab56889) [1:1000] were purchased from Abcam. […]
as §4

For `O=C(Nc1ccc(F)cc1F)[C@H](NC(=S)Nc1cc(C(F)(F)F)cc(C(F)(F)F)c1)c1ccccc1` [BL-918, reference compound], the “LC31: LC3II ratio” value in test [1] is recorded as “increases in the LC31: LC3II ratio”. Besides, the p62/SQSTM1 levels result in test [2] was “reduction in p62/SQSTM1 levels”. Moreover, in test [3], the “activation of ULK1 and autophagy (overall)” value was “potent activator of ULK1 and autophagy”; the “phosphorylation of ULK1 at Ser317” value is given as “induction of phosphorylation of ULK1 at Ser317”.

For the compound `O=C(Nc1cc(C(F)(F)F)cc(C(F)(F)F)c1)N[C@@H](C(=O)Nc1ccc(F)cc1F)c1ccc(OCc2cn(CCOCCOCCNC(=O)C(=O)c3c(-c4ccccc4)[nH]c4ccccc34)nn2)cc1` [NZ-65, (R)-2-(3-(3,5-bis(trifluoromethyl)phenyl)ureido)-N-(2,4-difluorophenyl)-2-(4-((1-(2-(2-(2-(2-oxo-2-(2-phenyl-1H-indol-3-yl)acetamido)ethoxy)ethoxy)ethyl)-1H-1,2,3-triazol-4-yl)methoxy)phenyl) acetamide], the “LC31: LC3II ratio” value in test [1] is “increases in the LC31: LC3II ratio”. In addition, the p62/SQSTM1 levels result in test [2] is given as “mild reductions in p62/SQSTM1”. In addition, in test [3], the “phosphorylation of ULK1 at Ser317” value is “strong increase in phospho-Ser317 levels”.

For the compound `O=C(Nc1cc(C(F)(F)F)cc(C(F)(F)F)c1)N[C@@H](C(=O)Nc1ccc(F)cc1F)c1ccc(OCc2cn(CCCCCCNC(=O)C(=O)c3c(-c4ccccc4)[nH]c4ccccc34)nn2)cc1` [NZ-66, (R)-2-(3-(3,5-bis(trifluoromethyl)phenyl)ureido)-N-(2,4-difluorophenyl)-2-(4-((1-(6-(2-oxo-2-(2-phenyl-1H-indol-3-yl)acetamido)hexyl)-1H-1,2,3-triazol-4-yl)methoxy)phenyl) acetamide], in test [1], the “LC31: LC3II ratio” value was “increases in the LC31: LC3II ratio”. The p62/SQSTM1 levels entry in test [2] is given as “mild reductions in p62/SQSTM1”. Further, the “phosphorylation of ULK1 at Ser317” value in test [3] is recorded as “strong increase in phospho-Ser317 levels”.
